Consider 20 compounds from PMC10384246, “Discovery of New Uracil and Thiouracil Derivatives as Potential HDAC Inhibitors” (Pharmaceuticals, 2023).

Values joined by “and” are separate entries in the source; they are usually repeats but may differ in a detail not shown here. Equal entries are not always repeated. Some results are limits rather than exact numbers.

Data set [1] concerns MCF-7 (human breast cancer cell line). Briefly: MTT anti-proliferative assay, MCF-7. It is filed as cell-based. Conditions: MCF7, MCF-7, mean of at least three experiments, read-out: Cytotoxicity IC50 MCF-7. As to the method: (§1) Sorafenib was used as a reference drug.
(§2) Anti-proliferative activity activities were tested using MTT assay as described in Supplementary Materials. […]
(§3) S2.1. In vitro anti-proliferative activities
(§4) The in vitro antiproliferative activities of all the synthesized compounds against three human tumor cell lines namely, MCF-7 (human breast cancer cell line), HepG2 (human liver […]
(§5) in the literature, using MTT assay protocol. Sorafenib was used in this test as a positive control.
(§6) The anti-proliferative activity was assessed quantitatively as follows.
(§7) Human cancer cell lines were seeded in 96-well plates at a density of 3-8 × 10^3 cells/well.
(§8) Next, the cells were incubated for 12 h in a 5% CO2 incubator at 37 °C. Then, for each well, the growth medium was exchanged with 0.1 ml of fresh medium containing graded concentrations of the test compounds or equal DMSO. Then 10 μl MTT solution ([…]) was added to each well, and the cells were incubated for additional 4 h. The crystals of MTT-formazan were dissolved in 100 μl of DMSO; the absorbance of each well was measured at 490 nm using an automatic ELISA reader system (TECAN, CHE). The IC50 values were calculated using the nonlinear regression fitting models (Graph Pad, Prism Version 5). The data represented the mean of three independent experiments in triplicate and were expressed as means ± SD. The IC50 value was […]
(§9) defined as the concentration at which 50% of the cells could survive. […]
For orientation: Formazan colour is commonly taken as a measure of viable cells.

In data set [2] the test system is colorectal carcinoma (HCT-116). Briefly: MTT anti-proliferative assay, HCT-116. It is filed as cell-based. The note with it: Homo sapiens, HCT-116, read-out: Cytotoxicity IC50 HCT-116. As to the method: as §1, §2, §3, §4, §5, §6, §7, §8, §9
Data set [3] has as its system HepG2 (human liver carcinoma cell line). Description: MTT anti-proliferative assay, HepG2. It counts as cell-based. The note with it: HepG2, mean of at least three experiments, read-out: Cytotoxicity IC50 HepG-2. As to the method: as §1, §2, §3, §4, §5, §6, §7, §8, §9
In data set [4] the target is HDAC1 (Homo sapiens, UniProt Q13547). Description: In vitro HDAC1 inhibitory assay. It counts as biochemical.
Data set [5] has as its target HDAC4 (Homo sapiens, UniProt P56524). Briefly: In vitro HDAC4 inhibitory assay. It is filed as biochemical.

Chain of HDAC1 (Q13547 whole entry): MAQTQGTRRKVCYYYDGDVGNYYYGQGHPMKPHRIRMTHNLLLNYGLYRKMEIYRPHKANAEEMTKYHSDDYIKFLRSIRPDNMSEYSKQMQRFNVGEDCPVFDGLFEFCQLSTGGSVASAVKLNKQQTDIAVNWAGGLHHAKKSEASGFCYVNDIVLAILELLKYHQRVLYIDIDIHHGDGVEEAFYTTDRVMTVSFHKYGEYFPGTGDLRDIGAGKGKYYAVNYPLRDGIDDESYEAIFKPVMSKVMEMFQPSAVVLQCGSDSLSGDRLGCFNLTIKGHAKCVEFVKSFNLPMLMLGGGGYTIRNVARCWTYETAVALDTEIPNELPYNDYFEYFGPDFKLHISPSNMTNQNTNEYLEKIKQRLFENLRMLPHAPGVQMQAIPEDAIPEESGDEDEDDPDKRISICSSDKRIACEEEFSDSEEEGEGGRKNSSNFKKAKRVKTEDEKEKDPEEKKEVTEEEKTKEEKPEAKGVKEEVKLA
Chain of HDAC4 (P56524 whole entry): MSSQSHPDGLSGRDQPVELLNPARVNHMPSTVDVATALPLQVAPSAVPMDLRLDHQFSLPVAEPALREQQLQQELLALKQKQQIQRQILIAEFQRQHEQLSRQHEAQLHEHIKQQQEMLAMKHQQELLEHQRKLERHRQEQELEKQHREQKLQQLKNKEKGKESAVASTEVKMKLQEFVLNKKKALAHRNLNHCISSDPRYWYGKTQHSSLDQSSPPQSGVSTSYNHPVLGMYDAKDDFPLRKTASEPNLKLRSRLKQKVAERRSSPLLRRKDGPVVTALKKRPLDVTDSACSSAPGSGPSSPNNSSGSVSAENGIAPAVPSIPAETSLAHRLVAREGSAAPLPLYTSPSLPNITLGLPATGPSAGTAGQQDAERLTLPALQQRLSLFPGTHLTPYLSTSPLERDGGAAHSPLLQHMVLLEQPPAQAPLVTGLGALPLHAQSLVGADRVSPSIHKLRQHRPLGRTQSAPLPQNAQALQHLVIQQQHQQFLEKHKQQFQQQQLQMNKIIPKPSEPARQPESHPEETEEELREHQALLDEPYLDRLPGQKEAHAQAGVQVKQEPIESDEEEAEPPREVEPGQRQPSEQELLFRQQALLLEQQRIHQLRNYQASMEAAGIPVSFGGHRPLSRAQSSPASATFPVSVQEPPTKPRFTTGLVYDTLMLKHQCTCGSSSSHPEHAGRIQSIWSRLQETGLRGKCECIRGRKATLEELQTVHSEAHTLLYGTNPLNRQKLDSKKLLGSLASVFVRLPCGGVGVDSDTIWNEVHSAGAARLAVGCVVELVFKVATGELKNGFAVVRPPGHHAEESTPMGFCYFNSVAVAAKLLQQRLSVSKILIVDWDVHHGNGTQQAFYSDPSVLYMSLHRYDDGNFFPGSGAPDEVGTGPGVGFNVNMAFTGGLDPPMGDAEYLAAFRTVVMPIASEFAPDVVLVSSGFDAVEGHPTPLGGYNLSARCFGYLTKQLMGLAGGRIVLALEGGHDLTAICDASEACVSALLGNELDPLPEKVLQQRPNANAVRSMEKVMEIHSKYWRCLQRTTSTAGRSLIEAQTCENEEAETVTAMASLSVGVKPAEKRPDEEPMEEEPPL

One may read the IC50 as the concentration that gives 50% inhibition. As usually defined, the melting point is the temperature of the solid-liquid transition. In turn, `CCn1c(N)c(C(c2ccc([N+](=O)[O-])cc2)c2c(N)n(CC)c(=S)[nH]c2=O)c(=O)[nH]c1=S` [Compound 5f, 5,5′-((4-Nitrophenyl)methylene)bis(6-amino-1-ethyl-2-thioxo-2,3-dihydropyrimidin-4(1H)-one)] returned a melting point of 274 to 275 °C. Also, the IC50 in data set [1] amounted to 9.3 ± 3.4 µM. In addition, the IC50 in data set [2] worked out at 71 ± 2.1 µM. Besides, the 50% inhibitory concentration (IC50) in data set [3] turned out to be 49 ± 0.17 µM. This compound also showed an IC50 in data set [4] of 4 µM. In addition, in data set [5], the IC50 was 12.2 µM.

Turning to `CCn1c(=S)[nH]c(=O)c2c(-c3ccc(OC)cc3)c3c(=O)[nH]c(=S)n(CC)c3nc21` [Compound 7b, 1,9-Diethyl-5-(4-methoxyphenyl)-2,8-dithioxo-2,3,8,9-tetrahydropyrido[2,3-d:6,5-d′]dipyrimidine-4,6(1H,7H)-dione], the melting point turned out to be 221 °C. Besides, in data set [1], the IC50 was determined as 871 ± 3.2 µM. For the same compound, in data set [2], the half-inhibitory concentration (IC50) came to 301 ± 3.4 µM. In data set [3], the IC50 was found to be 173 ± 4.5 µM.

`CCn1c(N)c(C(c2ccc(C)cc2)c2c(N)n(CC)c(=S)[nH]c2=O)c(=O)[nH]c1=S` [Compound 5b, 5,5′-(p-Tolylmethylene)bis(6-amino-1-ethyl-2-thioxo-2,3-dihydropyrimidin-4(1H)-one)] returned a melting point of 239 to 240 °C. Further, the IC50 in data set [1] came to 55 ± 2.8 µM. Further, in data set [2], the IC50 is 21 ± 2.4 µM. The IC50 in data set [3] is 51 ± 4 µM. The compound also gave an IC50 in data set [4] of 2.27 µM. This compound gave a half-inhibitory concentration (IC50) in data set [5] of 18 µM.

`CCn1c2c(c(=O)[nH]c1=S)C(c1ccc([N+](=O)[O-])cc1)c1c(n(CC)c(=S)[nH]c1=O)N2` [Compound 6b, 1,9-Diethyl-5-(4-nitrophenyl)-2,8-dithioxo-2,3,5,8,9,10-hexahydropyrido[2,3-d:6,5-d′]dipyrimidine-4,6(1H,7H)-dione]: the melting point fell in the range of 251 to 252 °C. In data set [1], the IC50 was 577 ± 20 µM. The IC50 in data set [2] came to 299 ± 2 µM. Also, the IC50 in data set [3] was found to be 184 ± 3.7 µM.

As to `CCn1c(N)c(C(c2cccs2)c2c(N)n(CC)c(=S)[nH]c2=O)c(=O)[nH]c1=S` [Compound 5g, 5,5′-(Thiophen-2-ylmethylene)bis(6-amino-1-ethyl-2-thioxo-2,3-dihydropyrimidin-4(1H)-one)], the melting point was 271 to 272 °C. For the same compound, in data set [1], the IC50 is 21 ± 2.2 µM. Besides, the IC50 in data set [2] was determined as 68 ± 1.8 µM. Further, the 50% inhibitory concentration (IC50) in data set [3] was found to be 33 ± 3.8 µM.

As for `CCCn1c2c(c(=O)[nH]c1=O)Cc1c(n(CCC)c(=O)[nH]c1=O)N2` [Compound 6d, 1,9-Dipropyl-5,10-dihydropyrido[2,3-d:6,5-d′]dipyrimidine-2,4,6,8 (1H,3H,7H,9H)-tetraone], the values for the IC50 in data set [1], in data set [2] and in data set [3] were 413 ± 1.3 µM, 361 ± 2 µM and 168 ± 1.5 µM, respectively.

In turn, `CCn1c(N)c(C(c2ccc(Cl)cc2)c2c(N)n(CC)c(=S)[nH]c2=O)c(=O)[nH]c1=S` [Compound 5c, 5,5′-((4-Chlorophenyl)methylene)bis(6-amino-1-ethyl-2-thioxo-2,3-dihydropyrimidin-4(1H)-one)] yielded a melting point above 300 °C. Moreover, the IC50 in data set [1] turned out to be 77 ± 2.3 µM. Besides, the 50% inhibitory concentration (IC50) in data set [2] came out at 97 ± 1.2 µM. The IC50 in data set [3] is 89 ± 2.4 µM.

For `CCn1c(N)c(C(c2ccc(Cl)cc2Cl)c2c(N)n(CC)c(=S)[nH]c2=O)c(=O)[nH]c1=S` [Compound 5d, 5,5′-((2,4-Dichlorophenyl)methylene)bis(6-amino-1-ethyl-2-thioxo-2,3-dihydropyrimidin-4(1H)-one)], the melting point was 272 to 273 °C. Also, the half-maximal inhibitory concentration (IC50) in data set [1] was 62 ± 2.1 µM. In addition, the IC50 in data set [2] is 281 ± 2.1 µM. In addition, the IC50 in data set [3] came to 40 ± 2.7 µM.

Consider `CCCn1c(N)c(C(c2ccc(OC)cc2)c2c(N)n(CCC)c(=O)[nH]c2=O)c(=O)[nH]c1=O` [Compound 5l, 5,5′-((4-Methoxyphenyl)methylene)bis(6-amino-1-propylpyrimidine-2,4(1H,3H)-dione)], for which the melting point was in the range of 289 to 290 °C. Moreover, the half-inhibitory concentration (IC50) in data set [1] came to 381 ± 1.5 µM. Further, the IC50 in data set [2] came to 83 ± 1.9 µM. Further, the IC50 in data set [3] stood at 31 ± 2 µM.

`CCn1c(=S)[nH]c(=O)c2c(-c3ccc(Cl)cc3)c3c(=O)[nH]c(=S)n(CC)c3nc21` [Compound 7a, 5-(4-Chlorophenyl)-1,9-diethyl-2,8-dithioxo-2,3,8,9-tetrahydropyrido[2,3-d:6,5-d′]dipyrimidine-4,6(1H,7H)-dione] registered a melting point of 224 to 225 °C. For the same compound, in data set [1], the IC50 is 472 ± 3.2 µM. In data set [2], the IC50 was found to be 361 ± 1.9 µM. The 50% inhibitory concentration (IC50) in data set [3] was 189 ± 4.8 µM.

The compound `CCn1c2c(c(=O)[nH]c1=S)C(c1ccccc1)c1c(n(CC)c(=S)[nH]c1=O)N2` [Compound 6a, 1,9-Diethyl-5-phenyl-2,8-dithioxo-2,3,5,8,9,10-hexahydropyrido[2,3-d:6,5-d′]dipyrimidine-4,6(1H,7H)-dione] returned a melting point of 255 to 256 °C. Besides, the IC50 in data set [1] came out at 333 ± 2.9 µM. Further, the IC50 in data set [2] is 291 ± 3.5 µM. Moreover, the IC50 in data set [3] was found to be 220 ± 3 µM.

Regarding `CCCn1c2c(c(=O)[nH]c1=O)C(c1ccc(OC)cc1)c1c(n(CCC)c(=O)[nH]c1=O)N2` [Compound 6c, 5-(4-Methoxyphenyl)-1,9-dipropyl-5,10-dihydropyrido[2,3-d:6,5-d′]dipyrimidine-2,4,6,8(1H,3H,7H,9H)-tetraone], the melting point is 180 to 181 °C. Further, the IC50 in data set [1] amounted to 435 ± 4.3 µM. Further, the IC50 in data set [2] is 466 ± 4.6 µM. Also, in data set [3], the IC50 is 114 ± 2.2 µM.

As for `CCCn1c(N)c(Cc2c(N)n(CCC)c(=O)[nH]c2=O)c(=O)[nH]c1=O` [Compound 5h, 5,5′-Methylenebis(6-amino-1-propylpyrimidine-2,4(1H,3H)-dione)], the IC50 amounted to 88 ± 2.5 µM in data set [1], 91 ± 1.9 µM in data set [2] and 52 ± 3.2 µM in data set [3].

In the case of `CCCn1c(N)c(C(c2ccc(Cl)cc2Cl)c2c(N)n(CCC)c(=O)[nH]c2=O)c(=O)[nH]c1=O` [Compound 5k, 5,5′-((2,4-Dichlorophenyl)methylene)bis(6-amino-1-propylpyrimidine-2,4(1H,3H)-dione)], the melting point lay within 285 to 286 °C. Further, in data set [1], the IC50 came out at 242 ± 2 µM. The IC50 in data set [2] stood at 80 ± 2.6 µM. Further, the IC50 in data set [3] stood at 5 ± 2 µM. In data set [4], this compound had a half-inhibitory concentration (IC50) of 0.464 µM. Also, inhibition in data set [5] was half-maximal at 13 µM (IC50).

Regarding `CNC(=O)c1cc(Oc2ccc(NC(=O)Nc3ccc(Cl)c(C(F)(F)F)c3)cc2)ccn1` [Sorafenib, reference compound], the half-maximal inhibitory concentration (IC50) was determined as 141 ± 3 µM in data set [1], 177 ± 0.9 µM in data set [2] and 17 ± 2.3 µM in data set [3].

Compound `CCn1c(N)c(C(c2ccc(OC)cc2)c2c(N)n(CC)c(=S)[nH]c2=O)c(=O)[nH]c1=S` [Compound 5e, 5,5′-((4-Methoxyphenyl)methylene)bis(6-amino-1-ethyl-2-thioxo-2,3-dihydropyrimidin-4(1H)-one)] displayed a melting point of 260 to 261 °C. For the same compound, the IC50 in data set [1] worked out at 60 ± 0.49 µM. In addition, the IC50 in data set [2] was found to be 90 ± 3 µM. The IC50 in data set [3] was 42 ± 2 µM.

In turn, `CCCn1c(N)c(C(c2ccc(C)cc2)c2c(N)n(CCC)c(=O)[nH]c2=O)c(=O)[nH]c1=O` [Compound 5j, 5,5′-(p-Tolylmethylene)bis(6-amino-1-propylpyrimidine-2,4(1H,3H)-dione)] came in with a melting point of 286 to 287 °C. For the same compound, the IC50 in data set [1] came to 71 ± 2 µM. The IC50 in data set [2] was 400 ± 2.4 µM. Moreover, in data set [3], the IC50 amounted to 38 ± 1.8 µM.

In turn, `CCn1c(N)c(C(c2ccccc2)c2c(N)n(CC)c(=S)[nH]c2=O)c(=O)[nH]c1=S` [Compound 5a, 5,5′-(Phenylmethylene)bis(6-amino-1-ethyl-2-thioxo-2,3-dihydropyrimidin-4(1H)-one)] yielded a melting point above 300 °C. In addition, the IC50 in data set [1] is 11 ± 1.6 µM. Besides, the IC50 in data set [2] came to 88 ± 2.4 µM. For the same compound, the concentration for half-maximal inhibition (IC50) in data set [3] was 39 ± 2.5 µM. Besides, in data set [4], half-maximal inhibition (IC50) required 3.11 µM. In data set [5], this compound gave an IC50 of 12.2 µM.

`CCn1c(=S)[nH]c(=O)c2c(-c3cccs3)c3c(=O)[nH]c(=S)n(CC)c3nc21` [Compound 7c, 1,9-Diethyl-5-(thiophen-2-yl)-2,8-dithioxo-2,3,8,9-tetrahydropyrido[2,3-d:6,5-d′]dipyrimidine-4,6(1H,7H)-dione] displayed a melting point of 216 to 217 °C. In addition, the half-maximal inhibitory concentration (IC50) in data set [1] is 450 ± 2.2 µM. In addition, the IC50 in data set [2] is 243 ± 2.2 µM. The concentration for half-maximal inhibition (IC50) in data set [3] was found to be 221 ± 2.5 µM.

The compound `CCCn1c(N)c(C(c2ccccc2)c2c(N)n(CCC)c(=O)[nH]c2=O)c(=O)[nH]c1=O` [Compound 5i, 5,5′-(Phenylmethylene)bis(6-amino-1-propylpyrimidine-2,4(1H,3H)-dione)] came in with a melting point of 294 to 295 °C. Besides, the IC50 in data set [1] worked out at 261 ± 2.5 µM. For the same compound, in data set [2], the IC50 came out at 64 ± 2.1 µM. Also, the IC50 in data set [3] amounted to 4 ± 1 µM. Further, the IC50 in data set [4] was 0.342 µM and 0.352 µM. The compound also gave an IC50 in data set [5] of 19.5 µM.
